Results taken from ChEMBL document CHEMBL1152643, “Tedanol: a potent anti-inflammatory ent-pimarane diterpene from the Caribbean Sponge Tedania ignis” (Bioorg Med Chem, 2009).
Activity calls are given as the source filed them. The calls are words filed in the database; no cut-off is given here.

Key:
Format in all cases: functional, organism-based
[1] = test system: Mus musculus; test: Antiinflammatory activity in ip dosed CD1 mouse assessed as inhibition of carrageenan-induced paw edema by hydroplethismometer
[2] = test system: Mus musculus; test: Antiinflammatory activity against carrageenan-induced inflammation in CD1 mouse assessed as inhibition of iNOS expression at 1 mg/kg, ip after 2 hrs by Western blot; parameters: dose 1 mg/kg
[3] = test system: Mus musculus; test: Antiinflammatory activity against carrageenan-induced inflammation in CD1 mouse assessed as inhibition of iNOS expression at 1 mg/kg, ip after 48 hrs by Western blot; parameters: dose 1 mg/kg
[4] = test system: Mus musculus; test: Antiinflammatory activity against carrageenan-induced inflammation in CD1 mouse assessed as inhibition of MPO activity at 1 mg/kg, ip after 48 hrs; parameters: dose 1 mg/kg
[5] = test system: Mus musculus; test: Antiinflammatory activity against carrageenan-induced inflammation in CD1 mouse assessed as inhibition of COX1 activity in second edema phase at 1 mg/kg, ip after 2 to 4 hrs by Western blot; parameters: dose 1 mg/kg
[6] = test system: Mus musculus; test: Antiinflammatory activity against carrageenan-induced inflammation in CD1 mouse assessed as inhibition of COX2 activity in second edema phase at 1 mg/kg, ip after 24 to 72 hrs by Western blot; parameters: dose 1 mg/kg
[7] = test system: Mus musculus; test: Antiinflammatory activity against carrageenan-induced inflammation in CD1 mouse assessed as inhibition of COX2 activity in early edema phase at 1 mg/kg, ip after 2 to 4 hrs by Western blot; parameters: dose 1 mg/kg
[8] = test system: Mus musculus; test: Antiinflammatory activity against carrageenan-induced inflammation in CD1 mouse assessed as inhibition of COX1 activity in second edema phase at 1 mg/kg, ip after 24 to 72 hrs by Western blot; parameters: dose 1 mg/kg
[9] = test system: Mus musculus; test: Antiinflammatory activity against carrageenan-induced inflammation in CD1 mouse assessed as inhibition of MPO activity at 1 mg/kg, ip after 4 hrs; parameters: dose 1 mg/kg

In the case of CC1(C)[C@H](Br)CC[C@@]2(C)C3=CC[C@](C)([C@@H](Br)COS(=O)(=O)O)C[C@H]3[C@H](O)C[C@H]12, the Activity [1] is reported as “Dose-dependent effect”, the Activity [2] is reported as “Active” and the Activity [3] is reported as “Active”. For the same compound, the Activity [4] was “Active”, the Activity [5] was “inactive” and the Activity [6] was “Active”. For the same compound, the Activity [7] was “Active”, the Activity [8] was “Active” and the Activity [9] was “Active”.
